# Values of other authors as cited in publication PMC6630532 (ACS Infectious Diseases, 2019).
# Test system: bacteria
# Details: read-out: IC50 (in vitro antimicrobial effect of killing 50% of the bacteria)
substance,measurement,value
H-TGRAKRRMQYNRR-NH2 [UBI29–41],IC50,20 µM
